The values below are quoted from earlier work in patent US5437864A, “Method of inhibiting blood coagulation in extracorporeal circulation by inhibiting human tissue factor” (The Scripps Research Institute, priority 1992, dated 1995).

The subject of one data set is baboon TF. The following applies: Taylor et al., J. Clin. Invest. (1987); cited from earlier work.
A further data set has as its system TF. The following applies: Pitlick, J. Clin. Invest., 55:175 (1975); cited from earlier work.

On to activated protein C, for which the “coagulopathic response and lethal effects of LD100 concentrations of E. coli in baboons” value in the data set on baboon TF is “prevents the coagulopathic response and lethal effects”.

On to concanavalin A, for which the “inhibition of TF activity” value in the data set with TF is “inhibits TF activity”.
